The results in this text go back to ChEMBL document CHEMBL1144938, “Human beta-secretase (BACE) and BACE inhibitors” (J Med Chem, 2003).

Numbered stars: 1 amine (or outer) side, 2 acyl side, 3 side chain; on linkers, the order of the positions; unused ones are H or OH. Square brackets hold non-standard residues; d marks the D form. Peptide text beside a SMILES is read from it. Sta = CC(C)C[C@H](N)[C@@H](O)CC(=O)O; X1 = CCC(O)[C@H](N[*:1])C(=O)[*:2]; Orn = NCCC[C@H](N)C(=O)O

Assay [1] deals with T1, Beta-secretase 1 (Homo sapiens, UniProt P56817). The experiment in a line: Compound was tested for its inhibitory activity against human beta-Secretase (BACE).
In assay [2] the target is T1, Beta-secretase 1. The experiment in a line: Compound was tested for its effective concentration against human beta-Secretase (BACE).

T1 sequence (P56817 whole entry): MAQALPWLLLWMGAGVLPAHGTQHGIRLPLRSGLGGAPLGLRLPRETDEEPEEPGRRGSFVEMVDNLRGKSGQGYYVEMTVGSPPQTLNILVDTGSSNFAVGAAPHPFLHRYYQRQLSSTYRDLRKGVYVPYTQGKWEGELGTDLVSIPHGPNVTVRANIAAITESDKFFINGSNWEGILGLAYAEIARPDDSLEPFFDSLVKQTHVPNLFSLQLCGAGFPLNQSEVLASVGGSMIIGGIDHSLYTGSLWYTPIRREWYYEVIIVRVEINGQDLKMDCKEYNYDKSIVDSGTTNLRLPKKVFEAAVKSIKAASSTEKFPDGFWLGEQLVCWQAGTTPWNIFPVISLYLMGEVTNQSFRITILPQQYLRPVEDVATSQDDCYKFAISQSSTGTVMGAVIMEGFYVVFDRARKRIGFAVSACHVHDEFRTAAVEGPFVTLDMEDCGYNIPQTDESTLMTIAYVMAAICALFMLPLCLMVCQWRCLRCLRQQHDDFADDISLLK

Consider `CC(C)[C@H](NC(=O)C[C@H](O)[C@H](Cc1cc(F)cc(F)c1)NC(=O)C(O)c1ccccc1-c1ccccc1)C(=O)Nc1cc(C(=O)O)cc(C(=O)O)c1` (stereo partly specified), for which the IC50 in assay [1] came to 20 nM. The molecule also returned an EC50 in assay [2] of 10000 nM.

Molecule `COC(=O)c1cc(NC(=O)[C@@H](NC(=O)C[C@H](O)[C@H](Cc2cc(F)cc(F)c2)NC(=O)C(O)c2ccccc2-c2ccccc2)C(C)C)cc(C(=O)OC)c1` (stereo partly specified) displayed an IC50 in assay [1] of 120 nM. In addition, a half-maximal response in assay [2] (EC50) required 4000 nM.

Take `CSCC[C@H](NC(=O)[C@@H](NC(=O)OC(C)(C)C)C(C)C)C(=O)N[C@@H](CC(C)C)[C@@H](O)C[C@@H](C)C(=O)N[C@H](C(=O)NCc1ccccc1)C(C)C`: in assay [1], 2 nM corresponded to half-maximal inhibition (IC50).

The molecule `CCC(O)[C@H](NC(=O)[C@@H](N)CCCN)C(=O)N[C@@H](CCC(=O)O)C(=O)N[C@@H](CCC(=O)O)C(=O)N[C@H](C(=O)N[C@@H](CO)C(=O)N[C@@H](CCC(=O)O)C(=O)N[C@H](C(=O)N[C@@H](CCSC)C(=O)N[C@@H](CC(C)C)[C@@H](O)CC(=O)N[C@H](C(=O)N[C@@H](C)C(=O)N[C@@H](CCC(=O)O)C(=O)N[C@@H](Cc1ccccc1)C(=O)O)C(C)C)C(C)C)[C@@H](C)CC` (stereo partly specified) (H-[Orn][X1]EEISEVM[Sta]VAEF-OH) returned an IC50 in assay [1] of 30 nM.
